Measured values as given in patent publication US20240229066A1 (priority 2020, published 2024).
Peptide text beside a SMILES is read from it. * marks the point of attachment. Cbz = O=C(OCc1ccccc1)*; CHN2 = [N-]=[N+]=C*

Assays:
Assay type in all cases: cell-based, recombinant vesicular stomatitis virus
[1] = system: rVSVs bearing SARS-CoV-2 S
[2] = system: rVSVs bearing EBOV GP
[3] = system: rVSVs carrying SARS-CoV 2 S

Structure (SMILES) | entry by rVSVs bearing SARS-CoV-2 S (infection scored by eGFP expression) [1] | sensitivity of S-mediated entry compared with entry by EBOV GP [1] | entry by rVSVs bearing EBOV GP (infection scored by eGFP expression) [2] | S-mediated entry (infection scored by eGFP expression) [3] | sensitivity of S-mediated entry relative to EBOV GP-dependent entry [3]
Cl.N [NH4Cl] | reduced entry | comparatively less sensitive | reduced entry |  | 
[N-]=[N+]=CC(=O)C(Cc1ccc(O)cc1)NC(=O)C(Cc1ccccc1)NC(=O)OCc1ccccc1 (stereo not drawn) [FYdmk, Z-Phe-tyr-dmk] (Cbz-Phe-Tyr-CHN2; configuration not given here) |  |  |  | inhibited S-mediated entry | reduced sensitivity
